Test results as given in US20050142169A1, “Palatability enhanced composition and method for animal consumption” (priority 2003, published 2005).

Legend:
cats [1] = assay: two-bowl preference test, Example 5 (Feline w/d); assay type: in vivo, cat; conditions: dry wt. of kibble
Excerpt: (§1) Finally, a commercial dry palatant enhancer (1.4% dry weight basis) was topically applied to the dry kibbles to complete the test composition.

cats [2] = assay: two-bowl preference test, Example 6 (Feline w/d); assay type: in vivo, cat; conditions: dry wt. of kibble
Excerpt: as §1

[3] = Exp. No. 7, second set of experiments, 5.0 ppm
[4] = Exp. No. 8, second set of experiments, 10.0 ppm
[5] = Exp. No. 9, second set of experiments, 20.0 ppm
[6] = Exp. No. 10, second set of experiments, 30.0 ppm
[7] = Exp. No. 11, second set of experiments, 40.0 ppm
[8] = Exp. No. 12, second set of experiments, 50.0 ppm
[9] = Exp. No. 7, second set of experiments, 1 ppm
[10] = Exp. No. 8, second set of experiments, 2 ppm
[11] = Exp. No. 9, second set of experiments, 3 ppm
[12] = Exp. No. 10, second set of experiments, 4 ppm
[13] = Exp. No. 11, second set of experiments, 5 ppm
[14] = Exp. No. 12, second set of experiments, 10 ppm

For `CC1=C(O)C(=O)C(C)O1` (centres unmarked) [2,5-dimethyl-4-hydroxy-3(2H)-furanone], the “Preference (%) control composition” value (cats [1]; [3]) was 0.0%, the “Preference (%) test composition” value (cats [1]; [3]) was 100.0% and the “Status (vs. control)” value (cats [1]; [3]) was “Win”. For the same compound, the “Intake Ratio” value (cats [1]; [4]) was 0.7990, the “Preference (%) control composition” value (cats [1]; [4]) was 12.0% and the “Preference (%) test composition” value (cats [1]; [4]) was 84.0%. The “Status (vs. control)” value (cats [1]; [4]) was “Win”, the “Intake Ratio” value (cats [1]; [5]) was 0.8128 and the “Preference (%) control composition” value (cats [1]; [5]) was 8.0%. For the same compound, the “Preference (%) test composition” value (cats [1]; [5]) was 92.0%, the “Status (vs. control)” value (cats [1]; [5]) was “Win” and the “Intake Ratio” value (cats [1]; [6]) was 0.8912. For the same compound, the “Preference (%) control composition” value (cats [1]; [6]) was 4.0%, the “Preference (%) test composition” value (cats [1]; [6]) was 92.0% and the “Status (vs. control)” value (cats [1]; [6]) was “Win”. For the same compound, the “Intake Ratio” value (cats [1]; [7]) was 0.8012, the “Preference (%) control composition” value (cats [1]; [7]) was 16.0% and the “Preference (%) test composition” value (cats [1]; [7]) was 80.0%. For the same compound, the “Status (vs. control)” value (cats [1]; [7]) was “Win”, the “Intake Ratio” value (cats [1]; [8]) was 0.8339 and the “Preference (%) control composition” value (cats [1]; [8]) was 12.5%. The “Preference (%) test composition” value (cats [1]; [8]) was 87.5%, the “Status (vs. control)” value (cats [1]; [8]) was “Win” and the “Intake Ratio” value (cats [2]; Exp. No. 1, 1 ppm) was 0.7653. The “Preference (%) control composition” value (cats [2]; Exp. No. 1, 1 ppm) was 20.0%, the “Preference (%) test composition” value (cats [2]; Exp. No. 1, 1 ppm) was 80.0% and the “Status (vs. control)” value (cats [2]; Exp. No. 1, 1 ppm) was “Win”. The “Intake Ratio” value (cats [2]; Exp. No. 2, 2 ppm) was 0.8280, the “Preference (%) control composition” value (cats [2]; Exp. No. 2, 2 ppm) was 17.6% and the “Preference (%) test composition” value (cats [2]; Exp. No. 2, 2 ppm) was 82.6%. The “Status (vs. control)” value (cats [2]; Exp. No. 2, 2 ppm) was “Win”, the “Intake Ratio” value (cats [2]; Exp. No. 3, 3 ppm) was 0.9457 and the “Preference (%) control composition” value (cats [2]; Exp. No. 3, 3 ppm) was 4.3%. The “Preference (%) test composition” value (cats [2]; Exp. No. 3, 3 ppm) was 95.7%, the “Status (vs. control)” value (cats [2]; Exp. No. 3, 3 ppm) was “Win” and the “Intake Ratio” value (cats [2]; Exp. No. 4, 4 ppm) was 0.8426. The “Preference (%) control composition” value (cats [2]; Exp. No. 4, 4 ppm) was 16.0%, the “Preference (%) test composition” value (cats [2]; Exp. No. 4, 4 ppm) was 84.0% and the “Status (vs. control)” value (cats [2]; Exp. No. 4, 4 ppm) was “Win”. For the same compound, the “Intake Ratio” value (cats [2]; Exp. No. 5, 5 ppm) was 0.8957, the “Preference (%) control composition” value (cats [2]; Exp. No. 5, 5 ppm) was 11.1% and the “Preference (%) test composition” value (cats [2]; Exp. No. 5, 5 ppm) was 88.9%. For the same compound, the “Status (vs. control)” value (cats [2]; Exp. No. 5, 5 ppm) was “Win”, the “Intake Ratio” value (cats [2]; Exp. No. 6, 10 ppm) was 0.8596 and the “Preference (%) control composition” value (cats [2]; Exp. No. 6, 10 ppm) was 4.2%. The “Preference (%) test composition” value (cats [2]; Exp. No. 6, 10 ppm) was 95.8%, the “Status (vs. control)” value (cats [2]; Exp. No. 6, 10 ppm) was “Win” and the “Intake Ratio” value (cats [2]; [9]) was 0.9077. The “Preference (%) control composition” value (cats [2]; [9]) was 4.2%, the “Preference (%) test composition” value (cats [2]; [9]) was 95.8% and the “Status (vs. control)” value (cats [2]; [9]) was “Win”. The “Intake Ratio” value (cats [2]; [10]) was 0.7613, the “Preference (%) control composition” value (cats [2]; [10]) was 16.0% and the “Preference (%) test composition” value (cats [2]; [10]) was 84.0%. For the same compound, the “Status (vs. control)” value (cats [2]; [10]) was “Win”, the “Intake Ratio” value (cats [2]; [11]) was 0.8206 and the “Preference (%) control composition” value (cats [2]; [11]) was 13.6%. The “Preference (%) test composition” value (cats [2]; [11]) was 86.4%, the “Status (vs. control)” value (cats [2]; [11]) was “Win” and the “Intake Ratio” value (cats [2]; [12]) was 0.8957. The “Preference (%) control composition” value (cats [2]; [12]) was 4.2%, the “Preference (%) test composition” value (cats [2]; [12]) was 95.7% and the “Status (vs. control)” value (cats [2]; [12]) was “Win”. For the same compound, the “Intake Ratio” value (cats [2]; [13]) was 0.8596, the “Preference (%) control composition” value (cats [2]; [13]) was 12.5% and the “Preference (%) test composition” value (cats [2]; [13]) was 87.5%. The “Status (vs. control)” value (cats [2]; [13]) was “Win”, the “Intake Ratio” value (cats [2]; [14]) was 0.7976 and the “Preference (%) control composition” value (cats [2]; [14]) was 15.0%. The “Preference (%) test composition” value (cats [2]; [14]) was 85.0% and the “Status (vs. control)” value (cats [2]; [14]) was “Win”.
